# Data: patent publication US9193673B2, “Derivatives of mesalazine, process of their preparation and their use in the treatment of intestinal inflammatory diseases” (SOFAR SPA, priority 2010, dated 2015)
# “And” between values parts separate entries of the source, which are not always exact repeats. Identical values can stand only once. “Also recorded” adds a separate entry of the source. Like-named read-outs stand apart in the source and are kept apart here.
# Tests used:
# [1] = Stability in rat plasma (hydrolysis by plasma esterases); type: in vitro ADME
# Experimental: (§1) Such study is conducted with the aim of evaluating possible hydrolysis of the compound (IV) by the plasma esterases. The percentage of hydrolysis of the compound (IV) is compared to that of known reference standards.
# [2] = Stability in human plasma (hydrolysis by plasma esterases); type: in vitro ADME
# Experimental: as §1
# [3] = Permeability on the Caco2 cellular line; type: in vitro ADME; conditions: human, Caco-2, Caco2
# Experimental: (§2) Such study is conducted with the aim of evaluating the capacity of the molecule to permeate the intestinal epithelium and be absorbed thereby evaluating the Papp (apparent permeability coefficient). The Papp of the compound (IV) is compared to that of the known reference standards.
# Caco2 cellular line = test: Permeability on the Caco2 cellular line; type: in vitro ADME
# Experimental: as §2
# [4] = Stability in murine intestinal homogenate; type: in vitro ADME, rat
# Experimental: Such study is conducted with the aim of evaluating the stability of the compound (IV) in intestinal homogenate.
# (§3) The stability of the compound (IV) is compared to that of known reference standards.
# [5] = Hydrolysis in rat intestine preserved in different conditions; type: in vitro ADME
# Experimental: Such study is conducted with the aim of surveying the stability of the compound (IV) in rat intestine homogenate preserved in different conditions: frozen at […] and at −80° C.
# as §3
# [6] = In vivo pharmacokinetic in the rat after i.v. and p.o. administration of compound (IV)
# DSS-induced colitis = DSS-induced colitis model; type: in vivo; conditions: DSS 3% C57BL/6 mice
# From the text: Experimental colitis models, such as the dextran sodium sulphate (DSS) model, are routinely available in our laboratory (1, 2). […] DSS-induced inflammation of the colon originates in the distal colon, progressing to involve the whole colon and in severe cases the caecum. In addition, the inflammation is confined to the mucosa and is generally not transmural. Furthermore, DSS-induced inflammation is not dependent on the presence of any specific intestinal bacterial flora.
# Colon inflammation has been induced in C57BL/6 mice by the administration of DSS in the drinking water at concentrations of 3%, for 5 days.
# Different parameters have been measured to test the efficacy of the selected compounds which are: • Clinical evaluation: daily recording weight and clinical activity (anal bleeding, presence of diarrhoea). This parameter has been quantified as percentage of body weight and DAI (Disease Activity Index) relating to anal bleeding and presence of diarrhoea. The lower the DAI is, the lower the anal bleeding is, thus better the therapeutic effect is. • Endoscopic evaluation: mice underwent endoscopy at the end of the treatment. This step is very important as most of the drugs used in human inflammatory bowel disease aim to achieve mucosal healing. • Histological colitis assessment: mice have been sacrificed at the end of the treatment, colons have been removed and histopathological analysis has been performed to assess the extent of tissue damage and recruitment of immune cells.
# The therapeutic effect has been evaluated with different experimental procedures (a)-c)) representing either the active phase (a)) or the remission phase (b)-c)) of an intestinal inflammatory disease at different doses: • a) treatment of acute phase at 200 mg/kg/day • b) treatment of remission phase at 50 mg/kg/day • c) treatment of remission phase at 100 mg/kg/day […]
# [7] = compound (IV) i.v. 5 mg/kg, rat, individual rats
# [8] = compound (IV) i.v. 5 mg/kg, rat, individual rats, 5 mg/kg
# [9] = compound (IV) oral gavage 50 mg/kg, rat, individual rats, 50 mg/kg
smiles,measurement,setting,value
"CCCC(=O)Oc1ccc(N)cc1C(=O)O.Cl [Compound (IV), 5-amino-2-(butyryloxy)benzoic acid]",% Residue at 60 min,"[1]; Rat plasma, 60 min",8.5 ± 2.0%
same,Hydrolysis in plasma,[1]; murine plasma,high hydrolysis percentage
same,% hydrolysed,"[1]; murine plasma, after 1 hour of incubation",91.5%
same,% Residue at 60 min,"[2]; Human plasma, 60 min",32.7 ± 2.6%
same,Hydrolysis in plasma,[2]; human plasma,high hydrolysis percentage
same,% hydrolysed,"[2]; human plasma, after 1 hour of incubation",67.3%
same,Papp A→B,"[3]; Apical (pH 6.5) → Basolateral (pH 7.4), read-out: Papp A→B (nm/sec) Mean ± SD",0.59 ± 0.12 ×10⁻⁶ cm/s
same,Papp B→A,"[3]; B→A, read-out: Papp B→A (nm/sec) Mean ± SD",0.24 ± 0.03 ×10⁻⁶ cm/s
same,A→B Mean mass balance %,"Caco2 cellular line; A→B, Caco2",69%
same,B→A Mean mass balance %,"Caco2 cellular line; B→A, Caco2",99%
same,BA/AB ratio,Caco2 cellular line; Caco2,0.41
same,Permeability,Caco2 cellular line; Caco2,poor permeability
same,BA/AB ratio,"Caco2 cellular line; Caco2, listed as compound (IV)",< 1
same,Substrate of P-gp (glycoprotein P),"Caco2 cellular line; from BA/AB ratio, Caco2",does not seem to be a substrate of P-gp
same,Permeability class,Caco2 cellular line; through the basolateral membrane of the Caco2 cell line,low
same,Stability in the rat intestine,[4]; rat intestinal homogenate,very unstable in the rat intestine; also recorded: quickly metabolised in the rat intestine
same,Residue percentage,"[4]; rat intestinal homogenate, 25 μM, 30 min",9.8 ± 1.1%
same,Residue percentage,"[4]; rat intestinal homogenate, 25 μM, 1 hr",12.2 ± 1.6%
same,Residue percentage,"[4]; rat intestinal homogenate, 25 μM, 2 hrs",10.1 ± 4.4%
same,Residue percentage,"[4]; rat intestinal homogenate, 25 μM, 4 hrs",24.5 ± 1.3(*) %
same,Residue percentage,"[4]; rat intestinal homogenate, 50 μM, 30 min",5.6 ± 0.6%
same,Residue percentage,"[4]; rat intestinal homogenate, 50 μM, 1 hr",4.4 ± 1.1%
same,Residue percentage,"[4]; rat intestinal homogenate, 50 μM, 2 hrs",7.3 ± 1.0%
same,Residue percentage,"[4]; rat intestinal homogenate, 50 μM, 4 hrs",5.5 ± 1.1%
same,Hydrolysis,[4]; tested at two concentrations (25 and 50 μM),90-95%
same,Metabolism in fresh rat intestine homogenate,[5]; fresh homogenate,metabolised quickly
same,Stability in rat intestine (residue %),"[5]; fresh homogenate, 15 min",0.030 ± 0.015%
same,Stability in rat intestine (residue %),"[5]; fresh homogenate, 30 min",0.031 ± 0.004%
same,Stability in rat intestine (residue %),"[5]; fresh homogenate, 60 min",0.047 ± 0.021%
same,Stability in rat intestine (residue %),"[5]; homogenate 4° C., 15 min",0.046 ± 0.004%
same,Stability in rat intestine (residue %),"[5]; homogenate 4° C., 30 min",0.046 ± 0.022%
same,Stability in rat intestine (residue %),"[5]; homogenate 4° C., 60 min",0.064 ± 0.008%
same,Stability in rat intestine (residue %),"[5]; homogenate −80° C., 15 min",0.024 ± 0.007%
same,Stability in rat intestine (residue %),"[5]; homogenate −80° C., 30 min",0.034 ± 0.001%
same,Stability in rat intestine (residue %),"[5]; homogenate −80° C., 60 min",0.470 ± 0.012%
same,Stability in rat intestine (residue %),"[5]; intestine −80° C., 15 min",0.145 ± 0.029%
same,Stability in rat intestine (residue %),"[5]; intestine −80° C., 30 min",0.091 ± 0.038%
same,Stability in rat intestine (residue %),"[5]; intestine −80° C., 60 min",0.098 ± 0.002%
same,Pharmacokinetic parameters,[6]; administered p.o. and i.v. in rats,good pharmacokinetic parameters
same,Metabolism in vivo,"[6]; after i.v. and p.o. treatment, rat",metabolised quickly
same,Tlast,[6]; [7],1440 min
same,Tmax,[6]; [7],2 min
same,AUCinf,[6]; [8],18700 ng·min/mL and 22424 ng·min/mL
same,AUClast,[6]; [8],17271 ng·min/mL and 21300 ng·min/mL
same,Cl,[6]; [8],229.9 mL/min/kg and 191.8 mL/min/kg
same,Clast,[6]; [8],1.8 ng/mL and 1.7 ng/mL
same,Cmax,[6]; [8],529 ng/mL and 851.2 ng/mL
same,MRT,[6]; [8],209 min and 175 min
same,T½,[6]; [8],547.1 min and 451.8 min
same,Vdss,[6]; [8],115.3 L/kg and 51.9 L/kg
same,Tlast Mean,"[6]; compound (IV) i.v. 5 mg/kg, rat, mean",1440 min
same,AUCinf,[6]; [9],3985 ng·min/mL and 5954 ng·min/mL
same,AUClast,[6]; [9],3943 ng·min/mL and 5925 ng·min/mL
same,Clast,[6]; [9],2.9 ng/mL and 0.8 ng/mL and 1.3 ng/mL
same,Cmax,[6]; [9],104 ng/mL and 174 ng/mL
same,MRTlast,[6]; [9],48 min and 32 min and 23 min
same,Tlast,[6]; [9],240 min (2×) and 120 min
same,Tmax,[6]; [9],30 min and 15 min and 5 min
same,Tlast Mean,"[6]; compound (IV) oral gavage 50 mg/kg, rat, mean",200 min
same,bioavailability,"[6]; plasma, oral gavage 50 mg/kg vs i.v. 5 mg/kg, rat, read-out: Mean Fpo 0_inf (%) (mean p.o. bioavailability)",2.4%
same,AUC(0-inf),"[6]; rat, plasma, iv, 5 mg/kg, compound (IV) i.v. 5 mg/kg, rat, individual rats, read-out: AUCinf (converted)",341 ng·h/mL
same,AUC(0-t),"[6]; rat, plasma, iv, 5 mg/kg, compound (IV) i.v. 5 mg/kg, rat, individual rats, read-out: AUClast (converted)",296 ng·h/mL
same,clearance,"[6]; rat, plasma, iv, 5 mg/kg, compound (IV) i.v. 5 mg/kg, rat, individual rats, read-out: Cl",210 mL/min/kg
same,concentration at 1440 min,"[6]; rat, plasma, iv, 5 mg/kg, compound (IV) i.v. 5 mg/kg, rat, individual rats, read-out: Clast",2.9 ng/mL
same,Cmax,"[6]; rat, plasma, iv, 5 mg/kg, compound (IV) i.v. 5 mg/kg, rat, individual rats, read-out: Cmax",598 ng/mL
same,MRT,"[6]; rat, plasma, iv, 5 mg/kg, compound (IV) i.v. 5 mg/kg, rat, individual rats, read-out: MRT (converted)",273 min
same,Tmax,"[6]; rat, plasma, iv, 5 mg/kg, compound (IV) i.v. 5 mg/kg, rat, individual rats, read-out: Tmax (converted)",2 min
same,half-life,"[6]; rat, plasma, iv, 5 mg/kg, compound (IV) i.v. 5 mg/kg, rat, individual rats, read-out: T½",638 min
same,AUC(0-inf),"[6]; rat, plasma, iv, 5 mg/kg, compound (IV) i.v. 5 mg/kg, rat, mean, read-out: AUCinf Mean (converted)",342 ng·h/mL
same,AUC(0-t),"[6]; rat, plasma, iv, 5 mg/kg, compound (IV) i.v. 5 mg/kg, rat, mean, read-out: AUClast Mean (converted)",313 ng·h/mL
same,clearance,"[6]; rat, plasma, iv, 5 mg/kg, compound (IV) i.v. 5 mg/kg, rat, mean, read-out: Cl Mean",211 mL/min/kg
same,concentration at 1440 min,"[6]; rat, plasma, iv, 5 mg/kg, compound (IV) i.v. 5 mg/kg, rat, mean, read-out: Clast Mean",2.1 ng/mL
same,Cmax,"[6]; rat, plasma, iv, 5 mg/kg, compound (IV) i.v. 5 mg/kg, rat, mean, read-out: Cmax Mean",659 ng/mL
same,MRT,"[6]; rat, plasma, iv, 5 mg/kg, compound (IV) i.v. 5 mg/kg, rat, mean, read-out: MRT Mean (converted)",219 min
same,Tmax,"[6]; rat, plasma, iv, 5 mg/kg, compound (IV) i.v. 5 mg/kg, rat, mean, read-out: Tmax Mean (converted)",2 min
same,half-life,"[6]; rat, plasma, iv, 5 mg/kg, compound (IV) i.v. 5 mg/kg, rat, mean, read-out: T½ Mean",546 min
same,Vd,"[6]; rat, plasma, iv, 5 mg/kg, compound (IV) i.v. 5 mg/kg, rat, mean, read-out: Vdss Mean",83.5 L/kg
same,concentration at 200 min,"[6]; rat, plasma, oral, 50 mg/kg, compound (IV) oral gavage 50 mg/kg, rat, mean, read-out: Clast Mean",2.8 ng/mL
same,concentration at 4 h,"[6]; rat, plasma, po, 50 mg/kg, after p.o. administration, rat, 4 hours",1 ng/mL
same,Cmax,"[6]; rat, plasma, po, 50 mg/kg, after p.o. administration, rat, read-out: Cmax",95 ng/mL
same,AUC(0-inf),"[6]; rat, plasma, po, 50 mg/kg, compound (IV) oral gavage 50 mg/kg, rat, individual rats, read-out: AUCinf (converted)",76.5 ng·h/mL
same,AUC(0-t),"[6]; rat, plasma, po, 50 mg/kg, compound (IV) oral gavage 50 mg/kg, rat, individual rats, read-out: AUClast (converted)",67.4 ng·h/mL
same,Cmax,"[6]; rat, plasma, po, 50 mg/kg, compound (IV) oral gavage 50 mg/kg, rat, individual rats, read-out: Cmax",89 ng/mL
same,AUC(0-inf),"[6]; rat, plasma, po, 50 mg/kg, compound (IV) oral gavage 50 mg/kg, rat, mean, read-out: AUCinf Mean (converted)",80.7 ng·h/mL
same,AUC(0-t),"[6]; rat, plasma, po, 50 mg/kg, compound (IV) oral gavage 50 mg/kg, rat, mean, read-out: AUClast Mean (converted)",77.3 ng·h/mL
same,Cmax,"[6]; rat, plasma, po, 50 mg/kg, compound (IV) oral gavage 50 mg/kg, rat, mean, read-out: Cmax Mean",122 ng/mL
same,MRT last,"[6]; rat, plasma, po, 50 mg/kg, compound (IV) oral gavage 50 mg/kg, rat, mean, read-out: MRTlast Mean (converted)",35 min
same,Tmax,"[6]; rat, plasma, po, 50 mg/kg, compound (IV) oral gavage 50 mg/kg, rat, mean, read-out: Tmax Mean (converted)",16.7 min
same,"Therapeutic efficiency (DAI, endoscopic and histological scores)","DSS-induced colitis; a) acute (active) phase, 200 mg/kg/day orally",comparable therapeutic efficiency
same,"Therapeutic activity (DAI, endoscopic and histological scores) vs 5-ASA, butyric acid, and their combined administration","DSS-induced colitis; b) remission phase, 50 mg/kg/day orally",better therapeutic activity
same,"Therapeutic activity (DAI, endoscopic and histological scores) vs 5-ASA, butyric acid, and their combined administration","DSS-induced colitis; c) remission phase, 100 mg/kg/day orally",better therapeutic activity
